Experimental data taken from ChEMBL document CHEMBL5465560, “Selectivity Literature for EUbOPEN Chemogenomic Library” (2024).

How the values were obtained:
[1] = test system: eIF-2-alpha kinase GCN2 (Homo sapiens), Q9P2K8 [S808G]; test: Selectivity interaction (KinomeScan (DiscoverX)) EUB0000229b EIF2AK4; details: at 10 µM
[2] = target: 5'-AMP-activated protein kinase catalytic subunit alpha-2 (Homo sapiens) (UniProt P54646); test: Selectivity interaction (KinomeScan (DiscoverX)) EUB0000311b PRKAA2; details: at 1 µM
[3] = target: T1, Ephrin type-B receptor 3 (Homo sapiens) (UniProt P54753); test: Selectivity interaction (KinomeScan (DiscoverX)) EUB0000595a EPHB3; details: at 10 µM
T1 sequence (whole entry): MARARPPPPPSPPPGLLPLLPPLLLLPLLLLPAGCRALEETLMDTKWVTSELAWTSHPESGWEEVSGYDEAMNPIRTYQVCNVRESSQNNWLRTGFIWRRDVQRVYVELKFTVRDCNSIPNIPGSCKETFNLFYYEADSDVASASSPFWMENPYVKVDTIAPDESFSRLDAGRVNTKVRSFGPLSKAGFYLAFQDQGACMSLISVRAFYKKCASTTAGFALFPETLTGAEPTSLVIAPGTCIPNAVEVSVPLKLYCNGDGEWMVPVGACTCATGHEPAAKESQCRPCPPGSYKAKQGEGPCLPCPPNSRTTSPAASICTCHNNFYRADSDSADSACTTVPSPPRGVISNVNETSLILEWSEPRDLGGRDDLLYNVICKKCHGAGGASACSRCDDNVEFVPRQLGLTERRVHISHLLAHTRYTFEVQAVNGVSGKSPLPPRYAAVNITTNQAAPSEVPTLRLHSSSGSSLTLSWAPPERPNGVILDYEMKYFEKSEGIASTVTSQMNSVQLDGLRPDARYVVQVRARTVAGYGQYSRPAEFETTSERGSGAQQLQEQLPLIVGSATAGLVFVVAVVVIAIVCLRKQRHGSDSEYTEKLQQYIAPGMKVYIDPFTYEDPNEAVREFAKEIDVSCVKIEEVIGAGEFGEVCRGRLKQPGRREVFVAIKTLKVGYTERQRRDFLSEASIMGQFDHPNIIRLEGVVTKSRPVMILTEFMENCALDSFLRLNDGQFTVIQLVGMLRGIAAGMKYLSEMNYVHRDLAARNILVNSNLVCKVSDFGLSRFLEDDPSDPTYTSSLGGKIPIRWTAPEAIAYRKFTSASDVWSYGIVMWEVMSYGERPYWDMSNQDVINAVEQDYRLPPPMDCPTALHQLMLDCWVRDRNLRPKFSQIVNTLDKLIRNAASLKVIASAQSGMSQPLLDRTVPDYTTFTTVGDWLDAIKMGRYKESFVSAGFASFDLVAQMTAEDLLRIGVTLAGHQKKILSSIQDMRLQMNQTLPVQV

[4] = test system: Phosphatidylinositol 4,5-bisphosphate 3-kinase catalytic subunit alpha isoform (Homo sapiens), P42336 [E542K]; details: at 10 µM
[5] = target: T2, 5-hydroxytryptamine receptor 2C (Homo sapiens) (UniProt P28335); test: Selectivity interaction (GPCR panel (PDSP screen)) EUB0001079a HTR2C; details: at 10 µM
T2 sequence (whole entry): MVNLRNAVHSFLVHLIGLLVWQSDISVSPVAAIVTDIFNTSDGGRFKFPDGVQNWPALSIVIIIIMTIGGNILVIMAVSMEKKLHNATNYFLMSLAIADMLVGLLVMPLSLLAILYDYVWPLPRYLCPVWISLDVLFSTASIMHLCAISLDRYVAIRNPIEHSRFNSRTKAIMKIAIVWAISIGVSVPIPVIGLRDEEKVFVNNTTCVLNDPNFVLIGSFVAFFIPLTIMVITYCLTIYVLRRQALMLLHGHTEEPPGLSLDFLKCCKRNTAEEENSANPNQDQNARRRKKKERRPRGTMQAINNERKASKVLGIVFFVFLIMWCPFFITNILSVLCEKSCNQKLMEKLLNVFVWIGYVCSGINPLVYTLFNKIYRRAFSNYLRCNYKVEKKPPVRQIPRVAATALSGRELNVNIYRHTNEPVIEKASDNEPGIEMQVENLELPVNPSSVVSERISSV

[6] = target: Dual specificity protein kinase CLK4 (Homo sapiens, UniProt Q9HAZ1); details: at 10 µM
[7] = target: Calcium/calmodulin-dependent protein kinase type 1 (Homo sapiens) (UniProt Q14012); test: Selectivity interaction (KinomeScan (DiscoverX)) EUB0001049a CAMK1; details: at 1 µM
[8] = target: BDNF/NT-3 growth factors receptor (Homo sapiens) (UniProt Q16620); test: Selectivity interaction (KinomeScan (DiscoverX)) EUB0001049a NTRK2; details: at 1 µM
[9] = target: Glycogen synthase kinase-3 alpha (Homo sapiens, UniProt P49840); test: Selectivity interaction (SelectScreen profiling (Invitrogen)) EUB0000607a GSK3A; details: at 2 µM
[10] = target: Serine/threonine-protein kinase 24 (Homo sapiens) (UniProt Q9Y6E0); test: Selectivity interaction (ActivX KiNativ screen (kinase selectivity in THP-1 cell lysates)) EUB0000639a STK24; type: subcellular; details: lysate, at 0.2 µM
[11] = target: T3, Serine/threonine-protein kinase Nek2 (Homo sapiens) (UniProt P51955); test: Selectivity interaction (KinomeScan (DiscoverX)) EUB0000092b NEK2; details: at 10 µM
T3 sequence (whole entry): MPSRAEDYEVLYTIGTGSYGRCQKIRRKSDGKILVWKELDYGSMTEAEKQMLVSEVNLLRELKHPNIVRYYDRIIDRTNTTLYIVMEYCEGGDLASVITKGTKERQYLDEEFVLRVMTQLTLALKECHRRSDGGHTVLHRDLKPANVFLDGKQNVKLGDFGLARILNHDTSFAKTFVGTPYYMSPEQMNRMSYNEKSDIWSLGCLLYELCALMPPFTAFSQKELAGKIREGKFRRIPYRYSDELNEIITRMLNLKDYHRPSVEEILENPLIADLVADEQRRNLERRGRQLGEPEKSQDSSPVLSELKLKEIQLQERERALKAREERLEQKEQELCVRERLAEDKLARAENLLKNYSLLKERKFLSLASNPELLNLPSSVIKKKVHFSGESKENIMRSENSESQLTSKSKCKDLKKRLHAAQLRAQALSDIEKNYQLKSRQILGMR

Chain of Glycogen synthase kinase-3 alpha (P49840 2-483 limits assumed): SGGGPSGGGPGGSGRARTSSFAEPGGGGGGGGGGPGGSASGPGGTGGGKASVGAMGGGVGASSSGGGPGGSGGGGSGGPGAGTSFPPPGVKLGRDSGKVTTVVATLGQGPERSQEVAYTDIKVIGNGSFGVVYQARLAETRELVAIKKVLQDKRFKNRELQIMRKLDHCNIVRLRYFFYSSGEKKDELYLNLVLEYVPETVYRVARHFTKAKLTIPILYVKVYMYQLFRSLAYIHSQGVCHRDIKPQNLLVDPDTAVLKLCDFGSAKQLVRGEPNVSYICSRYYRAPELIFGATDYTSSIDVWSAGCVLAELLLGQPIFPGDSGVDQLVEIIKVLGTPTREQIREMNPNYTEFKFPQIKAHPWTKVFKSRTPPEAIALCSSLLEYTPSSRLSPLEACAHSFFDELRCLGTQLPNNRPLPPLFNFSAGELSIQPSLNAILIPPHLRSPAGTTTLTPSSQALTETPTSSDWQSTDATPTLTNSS
Chain of Calcium/calmodulin-dependent protein kinase type 1 (Homo sapiens) (Q14012 whole entry, looked up): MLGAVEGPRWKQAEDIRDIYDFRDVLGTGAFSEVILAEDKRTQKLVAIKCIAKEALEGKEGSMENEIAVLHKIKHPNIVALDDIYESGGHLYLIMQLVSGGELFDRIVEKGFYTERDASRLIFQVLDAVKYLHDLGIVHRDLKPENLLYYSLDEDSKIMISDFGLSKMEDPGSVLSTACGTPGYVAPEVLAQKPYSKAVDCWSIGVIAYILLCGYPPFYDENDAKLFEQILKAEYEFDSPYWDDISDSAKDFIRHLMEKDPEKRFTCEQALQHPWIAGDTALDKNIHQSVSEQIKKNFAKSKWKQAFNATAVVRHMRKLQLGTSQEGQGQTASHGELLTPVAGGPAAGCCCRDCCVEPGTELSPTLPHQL
Chain of Serine/threonine-protein kinase 24 (Homo sapiens) (Q9Y6E0 whole entry, looked up): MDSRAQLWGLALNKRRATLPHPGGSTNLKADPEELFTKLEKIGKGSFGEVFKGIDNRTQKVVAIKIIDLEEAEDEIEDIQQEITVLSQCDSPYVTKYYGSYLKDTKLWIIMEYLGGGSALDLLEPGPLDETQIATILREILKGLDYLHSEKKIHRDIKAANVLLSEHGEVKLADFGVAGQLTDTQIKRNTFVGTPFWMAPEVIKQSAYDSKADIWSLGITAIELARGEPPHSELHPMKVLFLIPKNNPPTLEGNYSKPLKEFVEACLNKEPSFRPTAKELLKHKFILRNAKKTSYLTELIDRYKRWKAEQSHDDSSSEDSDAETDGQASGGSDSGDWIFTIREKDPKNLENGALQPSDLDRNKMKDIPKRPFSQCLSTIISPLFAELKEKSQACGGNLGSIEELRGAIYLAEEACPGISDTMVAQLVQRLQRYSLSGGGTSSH
Chain of eIF-2-alpha kinase GCN2 (Homo sapiens), Q9P2K8 [S808G] (Q9P2K8 whole entry S808G): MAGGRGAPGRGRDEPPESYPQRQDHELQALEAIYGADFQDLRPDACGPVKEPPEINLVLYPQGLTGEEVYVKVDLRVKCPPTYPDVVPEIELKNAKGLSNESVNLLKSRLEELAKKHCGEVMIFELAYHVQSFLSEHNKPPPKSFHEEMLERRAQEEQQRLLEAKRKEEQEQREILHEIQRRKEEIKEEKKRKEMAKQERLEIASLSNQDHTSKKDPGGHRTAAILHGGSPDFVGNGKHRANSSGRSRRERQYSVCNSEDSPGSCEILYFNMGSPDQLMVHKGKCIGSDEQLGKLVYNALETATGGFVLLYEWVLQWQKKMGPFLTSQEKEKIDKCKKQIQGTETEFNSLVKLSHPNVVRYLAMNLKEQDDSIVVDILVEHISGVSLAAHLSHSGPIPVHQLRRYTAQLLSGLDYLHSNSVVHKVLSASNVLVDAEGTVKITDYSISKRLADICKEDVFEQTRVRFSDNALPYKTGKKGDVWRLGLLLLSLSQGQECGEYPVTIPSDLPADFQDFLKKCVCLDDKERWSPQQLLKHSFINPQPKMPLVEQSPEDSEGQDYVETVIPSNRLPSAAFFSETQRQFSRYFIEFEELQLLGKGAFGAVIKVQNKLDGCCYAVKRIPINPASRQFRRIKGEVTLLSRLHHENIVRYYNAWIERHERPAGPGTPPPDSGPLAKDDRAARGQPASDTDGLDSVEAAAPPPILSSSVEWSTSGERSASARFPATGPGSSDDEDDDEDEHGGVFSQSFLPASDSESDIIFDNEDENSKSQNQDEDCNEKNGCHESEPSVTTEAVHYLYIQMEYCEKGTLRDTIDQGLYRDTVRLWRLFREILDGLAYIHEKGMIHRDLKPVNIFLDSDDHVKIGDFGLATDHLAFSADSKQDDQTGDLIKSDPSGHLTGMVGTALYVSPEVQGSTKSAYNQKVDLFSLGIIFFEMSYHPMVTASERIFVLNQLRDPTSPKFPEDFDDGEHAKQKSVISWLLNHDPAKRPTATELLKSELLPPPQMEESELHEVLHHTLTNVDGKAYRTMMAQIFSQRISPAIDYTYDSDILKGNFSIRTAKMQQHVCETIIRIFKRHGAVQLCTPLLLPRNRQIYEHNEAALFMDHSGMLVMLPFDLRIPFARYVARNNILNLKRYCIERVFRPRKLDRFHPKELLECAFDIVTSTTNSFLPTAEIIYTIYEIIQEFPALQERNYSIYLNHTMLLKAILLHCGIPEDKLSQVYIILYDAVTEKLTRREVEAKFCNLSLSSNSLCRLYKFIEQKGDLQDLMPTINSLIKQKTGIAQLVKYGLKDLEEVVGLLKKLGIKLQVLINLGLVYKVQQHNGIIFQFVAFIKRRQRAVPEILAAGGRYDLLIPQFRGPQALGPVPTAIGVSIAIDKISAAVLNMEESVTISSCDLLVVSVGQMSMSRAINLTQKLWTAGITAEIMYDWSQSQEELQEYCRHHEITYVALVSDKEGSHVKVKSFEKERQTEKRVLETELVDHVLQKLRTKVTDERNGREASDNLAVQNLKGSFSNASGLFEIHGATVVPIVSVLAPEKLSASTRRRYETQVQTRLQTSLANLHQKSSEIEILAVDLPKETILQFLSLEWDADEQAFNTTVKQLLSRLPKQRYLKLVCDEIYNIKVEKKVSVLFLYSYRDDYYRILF
Chain of 5'-AMP-activated protein kinase catalytic subunit alpha-2 (Homo sapiens) (P54646 whole entry, looked up): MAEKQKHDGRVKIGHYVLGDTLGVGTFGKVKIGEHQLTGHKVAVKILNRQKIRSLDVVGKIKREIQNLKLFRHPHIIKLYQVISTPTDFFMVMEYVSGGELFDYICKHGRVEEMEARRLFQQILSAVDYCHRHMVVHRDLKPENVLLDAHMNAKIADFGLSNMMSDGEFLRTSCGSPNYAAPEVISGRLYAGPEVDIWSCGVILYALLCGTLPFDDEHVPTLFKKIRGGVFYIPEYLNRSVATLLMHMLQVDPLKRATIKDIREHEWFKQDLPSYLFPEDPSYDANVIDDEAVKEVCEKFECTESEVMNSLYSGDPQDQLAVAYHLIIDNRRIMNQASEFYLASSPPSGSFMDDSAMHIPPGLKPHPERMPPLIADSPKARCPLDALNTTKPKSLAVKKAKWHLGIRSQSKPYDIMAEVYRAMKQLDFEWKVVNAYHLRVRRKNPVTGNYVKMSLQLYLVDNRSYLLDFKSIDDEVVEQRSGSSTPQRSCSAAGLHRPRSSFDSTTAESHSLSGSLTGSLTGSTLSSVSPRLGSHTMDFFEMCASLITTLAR
Chain of BDNF/NT-3 growth factors receptor (Homo sapiens) (Q16620 32-822 limits assumed): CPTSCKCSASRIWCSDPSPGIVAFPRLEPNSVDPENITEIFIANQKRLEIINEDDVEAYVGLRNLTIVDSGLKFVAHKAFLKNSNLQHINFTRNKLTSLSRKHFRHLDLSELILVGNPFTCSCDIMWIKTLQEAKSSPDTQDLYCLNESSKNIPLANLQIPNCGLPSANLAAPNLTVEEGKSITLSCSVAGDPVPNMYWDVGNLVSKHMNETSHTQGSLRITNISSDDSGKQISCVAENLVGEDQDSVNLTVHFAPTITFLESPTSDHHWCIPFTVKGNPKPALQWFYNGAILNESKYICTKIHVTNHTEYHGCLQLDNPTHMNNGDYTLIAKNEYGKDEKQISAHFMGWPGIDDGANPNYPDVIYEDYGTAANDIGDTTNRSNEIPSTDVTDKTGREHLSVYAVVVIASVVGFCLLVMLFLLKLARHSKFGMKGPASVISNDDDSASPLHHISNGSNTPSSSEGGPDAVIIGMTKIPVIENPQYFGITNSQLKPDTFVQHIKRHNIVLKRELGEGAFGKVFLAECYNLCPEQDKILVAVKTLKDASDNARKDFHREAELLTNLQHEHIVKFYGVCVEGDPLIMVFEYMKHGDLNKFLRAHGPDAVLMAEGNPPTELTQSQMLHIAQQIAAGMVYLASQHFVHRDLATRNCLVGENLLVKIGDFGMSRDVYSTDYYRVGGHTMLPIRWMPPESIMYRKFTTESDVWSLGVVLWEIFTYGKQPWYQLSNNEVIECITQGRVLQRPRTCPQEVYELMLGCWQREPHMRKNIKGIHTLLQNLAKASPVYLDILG
Chain of Dual specificity protein kinase CLK4 (Q9HAZ1 whole entry, looked up): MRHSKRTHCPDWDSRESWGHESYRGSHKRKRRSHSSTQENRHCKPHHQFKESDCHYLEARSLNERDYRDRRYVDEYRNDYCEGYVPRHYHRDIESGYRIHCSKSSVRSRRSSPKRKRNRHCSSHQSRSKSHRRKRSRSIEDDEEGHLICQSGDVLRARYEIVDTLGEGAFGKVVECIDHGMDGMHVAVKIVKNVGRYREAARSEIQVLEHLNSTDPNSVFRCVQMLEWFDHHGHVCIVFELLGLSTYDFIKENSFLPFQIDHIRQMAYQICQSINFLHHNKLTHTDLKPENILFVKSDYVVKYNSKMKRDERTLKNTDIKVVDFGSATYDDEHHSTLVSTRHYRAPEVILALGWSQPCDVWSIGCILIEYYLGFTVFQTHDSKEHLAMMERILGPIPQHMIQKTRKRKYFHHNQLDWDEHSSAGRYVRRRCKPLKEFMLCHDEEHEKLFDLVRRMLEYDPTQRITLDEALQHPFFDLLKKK

In the case of `COc1cc(N(C)c2ccnc3ccc(C(F)(F)F)cc23)cc(OC)c1OC`, the % binding [1] is reported as 100%.

With `CCc1ccccc1C(=O)Nc1n[nH]c2c(C)c(F)c(C3C(C#N)=C(C)N(C)C(C)=C3C#N)cc12` [BAY-3827] the % of control [2] was 0%.

Work on `COCC(=O)NC/C=C/c1ccc2ncnc(Nc3ccc(Oc4ccc(C)nc4)c(C)c3)c2c1` [CP-724714] yielded a % of control [3] of 86% and a % of control [4] of 100%.

`Nc1cnc(N2CCc3cc(S(=O)(=O)Nc4c(F)cc(Cl)cc4F)cc(N4CCCC4=O)c32)nc1` [TP-020n] showed a % of inhibition [5] of -15.8%.

Compound `Cc1cc([C@@H](C)Nc2ccccc2C(=O)O)c2nc(N3CCOCC3)cc(=O)n2c1` [AZD-6482] has a % of control [6] of 68%.

Work on `COc1cc(Nc2nc(C)cc(-c3cnn4nc(OC)ccc34)n2)cc(C(F)(F)F)c1` yielded a % of control [7] of 75% and a % of control [8] of 96%.

For `CNC(=O)Nc1ccc(-c2nc(N3CC4CCC(C3)O4)c3cnn(C4CCC5(CC4)OCCO5)c3n2)cc1`, the % of inhibition [9] was -1%.

In the case of `CC[C@@H]1[C@H](F)C(=O)N[C@@H]1COc1nccc2cc(C(N)=O)c(OC)cc12` [ZIMLOVISERTIB], the % of inhibition [10] is reported as 5.6%.

In the case of `CCC(=O)N1CCN(c2ccc(-n3c(=O)ccc4cnc5ccc(-c6cnc7ccccc7c6)cc5c43)cc2C(F)(F)F)CC1`, the % of control [11] is reported as 90%.
